Structures are written as SMILES. Where only a bound is given, the exact number is not on record here.

The results in this text go back to patent US20250129021A1, “SMALL MOLECULE PROTEIN SYNTHESIS MODULATORS” (Interdict Bio, Inc., priority 2023, published 2025).

Type in all cases: biochemical
One assay concerns MYC. Briefly: In vitro transcription-translation (IVTT) assay, MYC reporter. The settings on record: HeLa S3 lysate, 2 hrs at 30° C. The source says: (§1) All reporter constructs have been cloned into the pT7CFE1-CHis plasmid (ThermoFisher #88860) using Gibson assembly procedures (NEB #E2611L). The parental pT7CFE1-CHis plasmid contains an EMCV IRES at the 5′UTR for translation initiation, a multiple-cloning site (MCS) for gene insertion, an optional C-terminal His-epitope tag, and polyA sequence in the 3′UTR to regulate mRNA stability. All reporters are designed to be inserted at the MCS to include a red fluorescent protein (mCherry), P2A self-cleaving peptide which releases the preceding mCherry protein product, and a fusion open reading frame containing a 3×FLAG epitope, a peptide sequence of interest (TEST), and green fluorescent protein (sfGFP).
(§2) Construct Plasmid Preparation: All plasmids are isolated from MACH1 cells (ThermoFisher) grown overnight in ampicillin-containing luria broth, and purified using ZymoPure Express Plasmid Midiprep Kit (Zymo Research). Constructs are sequenced verified and diluted to a working concentration of 110 ng/μL.
(§3) HeLa S3 Lysate Preparation: HeLa S3 cell pellets are acquired from Ipracell/Ipratech (Belgium) and shipped as 4 mL frozen cell pellets on dry ice for storage at −80° C. until use. The procedure for lysate preparation is as follows. Prepare 1× Lysis Buffer, cold and stored on ice:
(§4) Each preparation takes 8 cell pellets (4 ml packed volume each, approximately 1.0×10^9 cells per pellet). Thaw cell pellets from −80° C. on ice for 90 mins. Lay pellets horizontally on top of the ice and rotate every 30 mins to ensure even thawing. Once thawed, add 4 mL of cold lysis buffer to each pellet, and using a serological pipet, gently pipet up and down to break up clumps. Incubate resuspended cells in ice for an additional 30 mins (plunged into ice). During 30 min incubation, rinse and RNase-zap (Ambion) glass dounces (use loose pestle “A”), gently dry and place on ice until needed. Prepare RNase-free Eppendorf tubes for spinning and for batch storage. Add batch labels to 1.5-1.7 mL RNase-free microcentrifuge tubes (labeling scheme below). Each batch will have an extra 1.5-1.7 mL RNase-free microcentrifuge tube for 40 μL of lysate, label the top of this tube (labeling scheme below). After 30 min incubation, transfer all 8 mL of cell pellet to dounce. Cell lysis is complete after douncing 100 times. Aliquot cell lysis into 1.5-1.7 mL temporary-microcentrifuge tubes. Place tubes in centrifuge with “fins” out, and spin at 1,200×g for 5 mins. After the first spin use a 1 mL pipet to resuspend each tube and repeat spin. This acts as an additional lysis step, is more vigorous and increases lysate yield. During second spin get liquid N2 and a fresh conical tube on ice. After spin is complete, transfer supernatant (lysate) from microcentrifuge tubes into the 50 mL conical tube and keep on ice. Repeat steps 10-14 for all other cell pellets until completed. Once all cell lysate has been transferred to the 50 mL conical tube pipet to mix so the solution is homogenous. Transfer 1 mL of lysate into batch-labeled microcentrifuge tubes and flash freeze in liquid nitrogen. Be sure to pipet up and down to mix throughout transfer step. Place all tubes in the […] for long-term storage.
(§5) In vitro transcription-translation assay setup: Each assay includes a master mix containing lysate and shared components, a 96-well plate containing compound titrations for testing, a 96-well DNA plate with reporter constructs to be tested, 96-well skirted PCR plates, and 96-well flat-bottom, black, fluorescent assay plates. […]

The subject of the next assay is MCL-1. Briefly: In vitro transcription-translation (IVTT) assay, MCL-1 reporter. The note with it: HeLa S3 lysate, sfGFP/mCherry ratio, 2 hrs at 30° C.
Source text: as §1, §2, §3, §4, §5

Another assay has as its system CCND1. Briefly: In vitro transcription-translation (IVTT) assay, CCND1 reporter. The settings on record: HeLa S3 lysate, 2 hrs at 30° C.
Source text: as §1, §2, §3, §4, §5

The mark [1] stands for this setting: IVTT assay, MYC reporter, normalized sfGFP/mCherry ratio, half-log dilutions 30 μM-0.1 μM.

Take `CNC(=O)O[C@@H]1[C@@H](O)CN[C@@H]1Cc1ccc(-c2cn(-c3cc4ccc(O)cc4oc3=O)nn2)cc1` [V193432, (2R,3S,4S)-4-hydroxy-2-(4-(1-(7-hydroxy-2-oxo-2H-chromen-3-yl)-1H-1,2,3-triazol-4-yl)benzyl)pyrrolidin-3-yl methylcarbamate]: the IC50 (commonly the midpoint of a concentration-inhibition curve) in the assay with MYC (setting [1]) is < 10 µM.

As to `O=C(NCCc1ccncc1)O[C@@H]1[C@@H](O)CN[C@@H]1Cc1ccc(-c2cn(Cc3cn[nH]c3)nn2)cc1` [V187948, (2R,3S,4S)-4-hydroxy-2-({4-[1-(1H-pyrazol-4-ylmethyl)-1,2,3-triazol-4-yl]phenyl}methyl)pyrrolidin-3-yl N-[2-(pyridin-4-yl)ethyl]carbamate], the concentration for half-maximal inhibition (IC50) in the assay with MCL-1, with CCND1 (sfGFP/mCherry ratio) and in the assay with MYC (sfGFP/mCherry ratio) was < 10 µM each time.

Regarding `O=C(NCC[C@@H]1CCOC1)O[C@@H]1[C@@H](O)CN[C@@H]1Cc1ccc(-c2cncs2)cc1` [V193642, (2R,3S,4S)-4-hydroxy-2-(4-(thiazol-5-yl)benzyl)pyrrolidin-3-yl (2-((R)-tetrahydrofuran-3-yl)ethyl)carbamate], the IC50 in the assay with MYC (setting [1]) is < 10 µM.

Consider `COc1ccc(C[C@H]2NC[C@H](O)[C@H]2OC(=O)NCc2cnc(N)nc2)cc1` [V188037, (2R,3S,4S)-4-hydroxy-2-[(4-methoxyphenyl)methyl]pyrrolidin-3-yl N-[(2-aminopyrimidin-5-yl)methyl]carbamate], for which the IC50 with MCL-1, in the assay with CCND1 (sfGFP/mCherry ratio) and in the assay on MYC (sfGFP/mCherry ratio) was < 10 µM in each case.

Consider `COc1ccc(C[C@H]2NC[C@H](O)[C@H]2OC(=O)NCCNc2ccccn2)cc1` [V188059, (2R,3S,4S)-4-hydroxy-2-[(4-methoxyphenyl)methyl]pyrrolidin-3-yl N-[2-(pyridin-2-ylamino)ethyl]carbamate], for which the IC50 in the assay on MCL-1, with CCND1 (sfGFP/mCherry ratio) and in the assay on MYC (sfGFP/mCherry ratio) was 10 to 20 µM each time.

Consider `COc1ccc(C[C@H]2NC[C@H](O)[C@H]2OC(=O)NCc2ccc(B(O)O)cc2)cc1` [V188106], for which the half-inhibitory concentration (IC50) in the assay on MCL-1, with CCND1 (sfGFP/mCherry ratio) and in the assay on MYC (sfGFP/mCherry ratio) was < 10 µM in each case.

Consider `COc1ccc(C[C@H]2NC[C@H](O)[C@H]2OC(=O)NCC2CNC2)cc1` [V187599, (2R,3S,4S)-4-hydroxy-2-[(4-methoxyphenyl)methyl]pyrrolidin-3-yl N-(azetidin-3-ylmethyl)carbamate], for which the IC50 in the assay with MCL-1 is 10 to 20 µM; with MYC (sfGFP/mCherry ratio), > 30 µM.

Take `O=C(NCC[C@H]1C[C@@H](O)C1)O[C@@H]1[C@@H](O)CN[C@@H]1Cc1ccc(-c2cncs2)cc1` [V193644, (2R,3S,4S)-4-hydroxy-2-(4-(thiazol-5-yl)benzyl)pyrrolidin-3-yl (2-((1s,3S)-3-hydroxycyclobutyl)ethyl)carbamate]: the IC50 in the assay with MYC (setting [1]) is < 10 µM.

Take `COc1ccc(C[C@H]2NC[C@H](O)[C@H]2OC(=O)NCCn2cnc3ccccc32)cc1` [V188090, (2R,3S,4S)-4-hydroxy-2-[(4-methoxyphenyl)methyl]pyrrolidin-3-yl N-[2-(1,3-benzodiazol-1-yl)ethyl]carbamate]: the IC50 in the assay with CCND1 (sfGFP/mCherry ratio) and in the assay with MYC (sfGFP/mCherry ratio) was > 30 µM throughout.

In the case of `COc1ccc(C[C@H]2NC[C@H](O)[C@H]2OC(=O)NCc2cc(C(F)(F)F)[nH]n2)cc1` [Cmpd V187861], the IC50 with MCL-1 was < 10 µM; with CCND1 (sfGFP/mCherry ratio) it was 20 to 30 µM; in the assay with MYC (sfGFP/mCherry ratio), > 30 µM.

`COc1ccc(C[C@H]2NC[C@H](O)[C@H]2OC(=O)NC[C@@H]2CNC[C@@H]2O)cc1` [Cmpd V188116]: the IC50 with MCL-1 is 10 to 20 µM; in the assay on CCND1 (sfGFP/mCherry ratio), > 30 µM; in the assay with MYC (sfGFP/mCherry ratio), 20 to 30 µM.

Regarding `COc1ccc(C[C@H]2NC[C@H](O)[C@H]2OC(=O)NCCC2CNC2)cc1` [V187600, (2R,3S,4S)-4-hydroxy-2-[(4-methoxyphenyl)methyl]pyrrolidin-3-yl N-[2-(azetidin-3-yl)ethyl]carbamate], the values for the 50% inhibitory concentration (IC50) in the assay on MCL-1 and in the assay with MYC (sfGFP/mCherry ratio) were < 10 µM and 10 to 20 µM, respectively.

With `COc1ccc(C[C@H]2NC[C@H](O)[C@H]2OC(=O)NCCNc2ncccn2)cc1` [V188058], the IC50 in the assay on MCL-1, in the assay on CCND1 (sfGFP/mCherry ratio) and in the assay on MYC (sfGFP/mCherry ratio) was > 30 µM throughout.

Consider `O=C(NCCc1cnoc1)O[C@@H]1[C@@H](O)CN[C@@H]1Cc1ccc(-c2cncs2)cc1` [V193647, (2R,3S,4S)-4-hydroxy-2-(4-(thiazol-5-yl)benzyl)pyrrolidin-3-yl (2-(isoxazol-4-yl)ethyl)carbamate], for which the IC50 with MYC (setting [1]) is < 10 µM.

Turning to `CC(C)CCNC(=O)O[C@@H]1[C@@H](O)CN[C@@H]1Cc1ccc(-c2cncs2)cc1` [V193648, (2R,3S,4S)-4-hydroxy-2-(4-(thiazol-5-yl)benzyl)pyrrolidin-3-yl isopentylcarbamate], the IC50 in the assay with MYC (setting [1]) was < 10 µM.

For the compound `O=C(NCCc1cn[nH]c1)O[C@@H]1[C@@H](O)CN[C@@H]1Cc1ccc(-c2cncs2)cc1` [V193646, (2R,3S,4S)-4-hydroxy-2-(4-(thiazol-5-yl)benzyl)pyrrolidin-3-yl (2-(1H-pyrazol-4-yl)ethyl)carbamate], the IC50 in the assay with MYC (setting [1]) was < 10 µM.

Take `COc1ccc(C[C@H]2NC[C@H](O)[C@H]2OC(=O)N[C@H](C)c2ccccc2)cc1` [V191970, (2R,3S,4S)-4-hydroxy-2-[(4-methoxyphenyl)methyl]pyrrolidin-3-yl N-[(1R)-1-phenylethyl]carbamate]: the IC50 in the assay on CCND1 (IVTT) and in the assay on MYC (setting [1]) was > 30 µM each time.

On to `[H]/N=C(/N)c1cccc(CNC(=O)O[C@@H]2[C@@H](O)CN[C@@H]2Cc2ccc(OC)cc2)c1` [Cmpd V187989], for which the IC50 in the assay with MCL-1 and in the assay with CCND1 (sfGFP/mCherry ratio) was < 10 µM in each case.

On to `O=C(NCC[C@H]1CCCO1)O[C@@H]1[C@@H](O)CN[C@@H]1Cc1ccc(-c2cncs2)cc1` [V193641, (2R,3S,4S)-4-hydroxy-2-(4-(thiazol-5-yl)benzyl)pyrrolidin-3-yl (2-((R)-tetrahydrofuran-2-yl)ethyl)carbamate], for which, in the assay with MYC (setting [1]), the IC50 was < 10 µM.

`O=C(NCC[C@H]1C[C@H](O)C1)O[C@@H]1[C@@H](O)CN[C@@H]1Cc1ccc(-c2cncs2)cc1` [V193645, (2R,3S,4S)-4-hydroxy-2-(4-(thiazol-5-yl)benzyl)pyrrolidin-3-yl (2-((1r,3R)-3-hydroxycyclobutyl)ethyl)carbamate]: the IC50 in the assay with MYC (setting [1]) was < 10 µM.

On to `COc1ccc(C[C@H]2NC[C@H](O)[C@H]2OC(=O)NC[C@@H]2CNC[C@H]2O)cc1` [V188093, (2R,3S,4S)-4-hydroxy-2-[(4-methoxyphenyl)methyl]pyrrolidin-3-yl N-{[(3S,4S)-4-hydroxypyrrolidin-3-yl]methyl}carbamate], for which the IC50 with CCND1 (sfGFP/mCherry ratio) is > 30 µM; in the assay with MYC (sfGFP/mCherry ratio) it was 20 to 30 µM.

For the compound `O=C(NCC[C@H]1CCOC1)O[C@@H]1[C@@H](O)CN[C@@H]1Cc1ccc(-c2cncs2)cc1` [V193643, (2R,3S,4S)-4-hydroxy-2-(4-(thiazol-5-yl)benzyl)pyrrolidin-3-yl (2-((S)-tetrahydrofuran-3-yl)ethyl)carbamate], in the assay on MYC (setting [1]), the IC50 is < 10 µM.

With `COc1ccc(C[C@H]2NC[C@H](O)[C@H]2OC(=O)NC[C@@H]2CCN(C)C2)cc1` [V188109, (2R,3S,4S)-4-hydroxy-2-[(4-methoxyphenyl)methyl]pyrrolidin-3-yl N-{[(3S)-1-methylpyrrolidin-3-yl]methyl}carbamate], the IC50 in the assay with CCND1 (sfGFP/mCherry ratio) was > 30 µM; in the assay on MYC (sfGFP/mCherry ratio), 10 to 20 µM.
